According to publication PMC2192565 (The Journal of Experimental Medicine, 1996):
Where no end group is shown, it is not given here.

Target: HLA-DRB1*0401 (Homo sapiens, UniProt P01903+P01911, A100K/A169T/F76Y/I96L/K127E/L162R/M171V/N62H/P40V/Q125Y/R42H/S133A/S149N/S66Y/V115G/V209L/W38E)
Test: biochemical
Format: binding

Compound | IC50 [nM]
CC[C@H](C)[C@H](NC(=O)[C@H](CC(N)=O)NC(=O)[C@@H](N)CCC(N)=O)C(=O)N[C@@H](CC(C)C)C(=O)N[C@@H](CC(C)C)C(=O)N[C@@H](CO)C(=O)N[C@@H](CC(N)=O)C(=O)N[C@@H](C)C(=O)N1CCC[C@H]1C(=O)N[C@@H](CC(C)C)C(=O)NCC(=O)N1CCC[C@H]1C(=O)N[C@@H](CCC(N)=O)C(=O)N[C@@H](Cc1ccccc1)C(=O)N1CCC[C@H]1C(=O)O [Ty 56-70] | 225
DFSYLQDSDPDSFQD [Y449 F] | 1470
DQSYLQDSDPDSFQD [Y449 Q] | 918
DYSFLQDSDPDSFQD [Y451 F] | 563
QNFLLSNAPLGPQFP [I58 F] | 55
QNIFLSNAPLGPQFP [L59 F] | 321
QNILFSNAPLGPQFP [L60 F] | 1100
QNILLSNAPQGPQFP [L65 Q] | 2000
QNILLSNAPVGPQFP [L65 V] | 1500
QNILLSNAQLGPQFP [P64 Q] | 290
QNILLSNAVLGPQFP [P64 V] | 158
QNILLSNQPLGPQFP [A63 Q] | 7760
QNILLSNVPLGPQFP [A63 V] | 12
QNILQSNAPLGPQFP [L60 Q] | 750
QNILVSNAPLGPQFP [L60 V] | 612
QNIQLSNAPLGPQFP [L59 Q] | 750
QNIVLSNAPLGPQFP [L59 V] | 95
QNQLLSNAPLGPQFP [I58 Q] | 6770
QNVLLSNAPLGPQFP [I58 V] | 957
